Laboratory results from ChEMBL document CHEMBL4052645, “Discovery of potent and efficacious pyrrolopyridazines as dual JAK1/3 inhibitors” (Bioorg Med Chem Lett, 2017).

What was measured:
[1] = molecular target: Ribosomal protein S6 kinase alpha-1 (Homo sapiens) (UniProt Q15418); experiment: Inhibition of wild-type human partial length C-terminal RSK1 […] (P360 to L681 residues) expressed in bacterial expression system assessed as residual activity at 50 nM by Kinomescan method relative to control
Chain of Ribosomal protein S6 kinase alpha-1 (Homo sapiens) (Q15418 whole entry, the tested form may be a part): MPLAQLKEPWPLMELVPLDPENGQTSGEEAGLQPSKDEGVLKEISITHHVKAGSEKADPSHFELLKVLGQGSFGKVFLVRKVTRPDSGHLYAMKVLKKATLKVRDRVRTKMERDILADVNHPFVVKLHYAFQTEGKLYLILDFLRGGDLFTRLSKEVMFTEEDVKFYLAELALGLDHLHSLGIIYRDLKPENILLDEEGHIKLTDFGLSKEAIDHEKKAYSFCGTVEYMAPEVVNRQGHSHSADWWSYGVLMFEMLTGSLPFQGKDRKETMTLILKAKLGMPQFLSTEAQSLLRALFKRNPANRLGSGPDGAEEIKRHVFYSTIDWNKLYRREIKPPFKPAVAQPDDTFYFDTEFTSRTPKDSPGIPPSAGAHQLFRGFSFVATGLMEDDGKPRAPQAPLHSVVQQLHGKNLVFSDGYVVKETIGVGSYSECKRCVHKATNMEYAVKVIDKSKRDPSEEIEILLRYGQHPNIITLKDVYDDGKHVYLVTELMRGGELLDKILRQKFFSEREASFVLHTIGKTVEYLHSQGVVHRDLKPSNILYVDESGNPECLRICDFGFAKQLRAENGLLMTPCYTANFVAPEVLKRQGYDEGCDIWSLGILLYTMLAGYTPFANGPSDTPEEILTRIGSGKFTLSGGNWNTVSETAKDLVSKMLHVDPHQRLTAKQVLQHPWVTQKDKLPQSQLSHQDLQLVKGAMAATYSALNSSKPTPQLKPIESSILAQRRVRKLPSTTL

[2] = molecular target: Tyrosine-protein kinase Fyn (Homo sapiens) (UniProt P06241); experiment: Inhibition of wild-type human partial length FYN (T243 to L534 residues) expressed in bacterial expression system assessed as residual activity at 50 nM by Kinomescan method relative to control
Chain of Tyrosine-protein kinase Fyn (Homo sapiens) (P06241 2-537 limits assumed): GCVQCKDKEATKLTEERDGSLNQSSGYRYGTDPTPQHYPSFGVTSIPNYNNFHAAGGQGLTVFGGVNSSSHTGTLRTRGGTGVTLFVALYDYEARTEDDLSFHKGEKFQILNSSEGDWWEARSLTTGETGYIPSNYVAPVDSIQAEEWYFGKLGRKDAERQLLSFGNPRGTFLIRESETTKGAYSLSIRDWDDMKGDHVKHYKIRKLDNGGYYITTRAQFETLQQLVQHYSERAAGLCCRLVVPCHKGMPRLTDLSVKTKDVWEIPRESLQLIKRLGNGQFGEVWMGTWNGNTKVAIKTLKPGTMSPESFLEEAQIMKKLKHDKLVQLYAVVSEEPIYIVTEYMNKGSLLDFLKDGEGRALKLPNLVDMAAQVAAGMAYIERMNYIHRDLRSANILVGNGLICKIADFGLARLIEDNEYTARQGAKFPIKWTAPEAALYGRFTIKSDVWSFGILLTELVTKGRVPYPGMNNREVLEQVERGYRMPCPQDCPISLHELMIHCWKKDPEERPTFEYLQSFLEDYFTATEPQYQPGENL

[3] = molecular target: Serine/threonine-protein kinase DCLK3 (Homo sapiens) (UniProt Q9C098); experiment: Inhibition of wild-type human partial length DCAMKL3 (E140 to V628 residues) expressed in bacterial expression system assessed as residual activity at 50 nM by Kinomescan method relative to control
[4] = molecular target: Receptor tyrosine-protein kinase erbB-4 (Homo sapiens) (UniProt Q15303); experiment: Inhibition of wild-type human partial length ERBB4 (L690 to K994 residues) expressed in bacterial expression system assessed as residual activity at 50 nM by Kinomescan method relative to control
[5] = molecular target: Ephrin type-B receptor 6 (Homo sapiens) (UniProt O15197); experiment: Inhibition of wild-type human partial length EPHB6 (Q634 to P948 residues) expressed in mammalian expression system assessed as residual activity at 50 nM by Kinomescan method relative to control
[6] = molecular target: Non-receptor tyrosine-protein kinase TNK1 (Homo sapiens) (UniProt Q13470); experiment: Inhibition of wild-type human full length TNK1 (M1 to P661 residues) expressed in bacterial expression system assessed as residual activity at 50 nM by Kinomescan method relative to control
[7] = molecular target: Serine/threonine-protein kinase DCLK1 (Homo sapiens) (UniProt O15075); experiment: Inhibition of wild-type human partial length DCAMKL1 (L270 to A662 residues) expressed in mammalian expression system assessed as residual activity at 50 nM by Kinomescan method relative to control
Chain of Serine/threonine-protein kinase DCLK1 (Homo sapiens) (O15075 whole entry, the tested form may be a part): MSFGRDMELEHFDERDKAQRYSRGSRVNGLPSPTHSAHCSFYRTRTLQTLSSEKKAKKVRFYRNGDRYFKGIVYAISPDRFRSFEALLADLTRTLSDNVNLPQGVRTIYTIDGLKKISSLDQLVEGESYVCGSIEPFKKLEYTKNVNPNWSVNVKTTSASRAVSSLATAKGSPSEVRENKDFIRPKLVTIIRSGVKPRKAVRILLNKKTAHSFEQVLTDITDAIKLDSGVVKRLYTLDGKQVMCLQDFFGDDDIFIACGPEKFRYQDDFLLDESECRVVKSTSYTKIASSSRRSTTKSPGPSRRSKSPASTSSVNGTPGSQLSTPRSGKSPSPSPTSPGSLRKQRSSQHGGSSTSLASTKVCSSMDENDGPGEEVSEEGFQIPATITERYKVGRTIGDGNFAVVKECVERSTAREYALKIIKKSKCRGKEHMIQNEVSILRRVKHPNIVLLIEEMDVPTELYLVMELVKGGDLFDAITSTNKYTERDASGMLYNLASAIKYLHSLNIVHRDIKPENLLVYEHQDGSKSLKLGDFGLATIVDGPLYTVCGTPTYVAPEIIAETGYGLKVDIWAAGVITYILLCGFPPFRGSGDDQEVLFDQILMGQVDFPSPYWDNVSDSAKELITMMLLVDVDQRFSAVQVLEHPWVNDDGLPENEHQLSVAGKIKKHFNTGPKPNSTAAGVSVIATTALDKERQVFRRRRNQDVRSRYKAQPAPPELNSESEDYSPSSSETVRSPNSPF

[8] = molecular target: Ribosomal protein S6 kinase alpha-5 (Homo sapiens) (UniProt O75582); experiment: Inhibition of wild-type human partial length C-terminal MSK1 kinase domain 2 (V390 to T718 residues) expressed in bacterial expression system assessed as residual activity at 50 nM by Kinomescan method relative to control
[9] = molecular target: Proto-oncogene tyrosine-protein kinase ROS (Homo sapiens) (UniProt P08922); experiment: Inhibition of wild-type human partial length ROS (A1921 to N2240 residues) expressed in bacterial expression system assessed as residual activity at 50 nM by Kinomescan method relative to control
[10] = molecular target: Tyrosine-protein kinase JAK3 (Homo sapiens) (UniProt P52333); experiment: Inhibition of human JAK3 D2 domain (I781 to S1124 residues) expressed in mammalian expression system assessed as residual activity at 50 nM by KINOMEscan assay relative to control
[11] = molecular target: Vascular endothelial growth factor receptor 3 (Homo sapiens) (UniProt P35916); experiment: Inhibition of wild-type human partial length FLT4 (E821 to E1196 residues) expressed in bacterial expression system assessed as residual activity at 50 nM by Kinomescan method relative to control
[12] = molecular target: Mast/stem cell growth factor receptor Kit (Homo sapiens) (UniProt P10721); experiment: Inhibition of wild-type human partial length KIT (I571 to D952 residues) expressed in bacterial expression system assessed as residual activity at 50 nM by Kinomescan method relative to control
Chain of Mast/stem cell growth factor receptor Kit (Homo sapiens) (P10721 whole entry, the tested form may be a part): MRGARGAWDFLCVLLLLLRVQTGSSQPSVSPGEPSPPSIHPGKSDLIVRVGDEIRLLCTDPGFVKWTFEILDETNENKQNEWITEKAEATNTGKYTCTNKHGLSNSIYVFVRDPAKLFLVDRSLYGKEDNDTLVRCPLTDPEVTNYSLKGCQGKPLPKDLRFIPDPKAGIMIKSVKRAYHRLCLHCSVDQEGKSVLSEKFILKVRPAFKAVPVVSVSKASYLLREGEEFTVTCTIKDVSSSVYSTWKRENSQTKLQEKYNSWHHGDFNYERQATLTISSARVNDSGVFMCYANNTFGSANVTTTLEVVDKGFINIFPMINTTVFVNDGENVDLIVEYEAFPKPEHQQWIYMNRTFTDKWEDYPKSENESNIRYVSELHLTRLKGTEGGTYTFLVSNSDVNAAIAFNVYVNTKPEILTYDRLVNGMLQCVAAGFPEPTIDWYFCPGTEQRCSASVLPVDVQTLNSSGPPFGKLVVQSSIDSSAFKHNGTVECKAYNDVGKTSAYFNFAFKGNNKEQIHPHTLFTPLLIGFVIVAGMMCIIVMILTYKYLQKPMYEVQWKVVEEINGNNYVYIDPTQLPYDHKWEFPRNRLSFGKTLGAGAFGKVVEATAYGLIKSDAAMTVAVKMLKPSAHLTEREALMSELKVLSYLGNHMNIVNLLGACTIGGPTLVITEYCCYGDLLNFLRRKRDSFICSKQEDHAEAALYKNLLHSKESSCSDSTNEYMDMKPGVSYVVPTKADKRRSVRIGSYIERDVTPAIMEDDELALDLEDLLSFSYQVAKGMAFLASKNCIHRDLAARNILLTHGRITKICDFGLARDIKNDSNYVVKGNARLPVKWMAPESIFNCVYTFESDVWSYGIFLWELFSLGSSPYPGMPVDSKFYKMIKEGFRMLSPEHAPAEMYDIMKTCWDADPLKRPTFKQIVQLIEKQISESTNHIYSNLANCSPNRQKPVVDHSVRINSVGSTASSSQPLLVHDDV

[13] = molecular target: Tyrosine-protein kinase ZAP-70 (Homo sapiens) (UniProt P43403); experiment: Inhibition of wild-type human partial length ZAP70 (D20 to G299 residues) expressed in mammalian expression system assessed as residual activity at 50 nM by Kinomescan method relative to control
[14] = molecular target: Serine/threonine-protein kinase SIK3 (Homo sapiens) (UniProt Q9Y2K2); experiment: Inhibition of wild-type human partial length QSK (A90 to L395 residues) expressed in mammalian expression system assessed as residual activity at 50 nM by Kinomescan method relative to control
[15] = molecular target: Tyrosine-protein kinase JAK1 (Homo sapiens, UniProt P23458); experiment: Inhibition of human JAK1 (V856 to K1154 residues) expressed in bacterial expression system assessed as residual activity at 50 nM by KINOMEscan assay relative to control
[16] = molecular target: Mitogen-activated protein kinase kinase kinase 13 (Homo sapiens) (UniProt O43283); experiment: Inhibition of wild-type human full length LZK (M1 to W966 residues) expressed in mammalian expression system assessed as residual activity at 50 nM by Kinomescan method relative to control
Chain of Mitogen-activated protein kinase kinase kinase 13 (Homo sapiens) (O43283 whole entry, the tested form may be a part): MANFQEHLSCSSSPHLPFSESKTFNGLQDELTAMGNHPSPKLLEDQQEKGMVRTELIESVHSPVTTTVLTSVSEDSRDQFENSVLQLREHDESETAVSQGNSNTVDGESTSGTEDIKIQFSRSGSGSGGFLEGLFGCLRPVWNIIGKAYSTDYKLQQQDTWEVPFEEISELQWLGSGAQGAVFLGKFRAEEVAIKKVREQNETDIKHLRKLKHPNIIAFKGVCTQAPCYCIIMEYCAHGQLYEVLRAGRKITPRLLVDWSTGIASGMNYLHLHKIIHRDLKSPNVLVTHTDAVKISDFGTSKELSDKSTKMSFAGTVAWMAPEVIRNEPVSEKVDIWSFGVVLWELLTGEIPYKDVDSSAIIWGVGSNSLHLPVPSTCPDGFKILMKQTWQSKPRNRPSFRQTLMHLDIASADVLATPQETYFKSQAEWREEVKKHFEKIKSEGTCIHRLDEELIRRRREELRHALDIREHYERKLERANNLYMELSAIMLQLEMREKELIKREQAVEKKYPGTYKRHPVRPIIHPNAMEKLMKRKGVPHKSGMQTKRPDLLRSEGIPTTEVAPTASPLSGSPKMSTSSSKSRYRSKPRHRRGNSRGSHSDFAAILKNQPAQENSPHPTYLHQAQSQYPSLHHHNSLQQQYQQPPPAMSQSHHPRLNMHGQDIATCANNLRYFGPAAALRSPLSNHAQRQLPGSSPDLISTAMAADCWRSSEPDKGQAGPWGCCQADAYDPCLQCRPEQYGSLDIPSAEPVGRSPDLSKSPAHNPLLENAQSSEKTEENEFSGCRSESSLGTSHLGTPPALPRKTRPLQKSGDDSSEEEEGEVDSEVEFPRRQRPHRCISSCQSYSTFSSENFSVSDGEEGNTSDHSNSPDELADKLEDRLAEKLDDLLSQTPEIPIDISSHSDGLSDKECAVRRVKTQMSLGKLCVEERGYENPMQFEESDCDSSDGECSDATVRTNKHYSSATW

[17] = molecular target: Tyrosine-protein kinase TXK (Homo sapiens) (UniProt P42681); experiment: Inhibition of wild-type human partial length TXK (L238 to W527 residues) expressed in bacterial expression system assessed as residual activity at 50 nM by Kinomescan method relative to control
[18] = molecular target: Ephrin type-A receptor 4 (Homo sapiens) (UniProt P54764); experiment: Inhibition of wild-type human partial length EPHA4 (T601 to R897 residues) expressed in bacterial expression system assessed as residual activity at 50 nM by Kinomescan method relative to control
Chain of Ephrin type-A receptor 4 (Homo sapiens) (P54764 whole entry, the tested form may be a part): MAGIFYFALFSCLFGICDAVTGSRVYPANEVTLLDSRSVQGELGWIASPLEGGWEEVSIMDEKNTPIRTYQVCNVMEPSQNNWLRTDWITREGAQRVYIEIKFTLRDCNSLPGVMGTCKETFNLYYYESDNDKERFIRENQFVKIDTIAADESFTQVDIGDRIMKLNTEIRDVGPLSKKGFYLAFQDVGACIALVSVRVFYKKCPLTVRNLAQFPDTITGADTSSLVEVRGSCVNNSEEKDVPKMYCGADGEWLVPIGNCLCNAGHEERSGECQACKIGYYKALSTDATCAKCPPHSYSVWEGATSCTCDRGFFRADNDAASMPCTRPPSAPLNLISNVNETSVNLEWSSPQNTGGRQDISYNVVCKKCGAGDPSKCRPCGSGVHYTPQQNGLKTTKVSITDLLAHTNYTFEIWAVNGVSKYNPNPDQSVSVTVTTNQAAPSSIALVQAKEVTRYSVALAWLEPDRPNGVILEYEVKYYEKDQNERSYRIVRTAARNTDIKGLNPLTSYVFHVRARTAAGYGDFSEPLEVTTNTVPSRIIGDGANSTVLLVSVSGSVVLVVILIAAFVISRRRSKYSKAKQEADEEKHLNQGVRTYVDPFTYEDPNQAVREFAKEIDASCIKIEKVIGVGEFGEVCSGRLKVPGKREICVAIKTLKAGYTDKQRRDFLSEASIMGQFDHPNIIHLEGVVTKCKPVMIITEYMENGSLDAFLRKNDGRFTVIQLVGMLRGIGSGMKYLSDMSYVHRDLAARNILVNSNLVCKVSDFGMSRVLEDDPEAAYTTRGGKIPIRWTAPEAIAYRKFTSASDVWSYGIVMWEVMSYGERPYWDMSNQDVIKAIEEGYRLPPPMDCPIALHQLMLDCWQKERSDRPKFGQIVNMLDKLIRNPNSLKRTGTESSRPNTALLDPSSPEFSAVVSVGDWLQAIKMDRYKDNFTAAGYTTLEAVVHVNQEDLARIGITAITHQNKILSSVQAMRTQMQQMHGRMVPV

[19] = molecular target: Dual specificity mitogen-activated protein kinase kinase 7 (Homo sapiens) (UniProt O14733); experiment: Inhibition of wild-type human full length MAP2K7 (M1 to R419 residues) expressed in mammalian expression system assessed as residual activity at 50 nM by Kinomescan method relative to control
[20] = molecular target: Phosphatidylinositol 5-phosphate 4-kinase type-2 gamma (Homo sapiens) (UniProt Q8TBX8); experiment: Inhibition of wild-type human partial length PIP5K2C (M1 to A421 residues) expressed in mammalian expression system assessed as residual activity at 50 nM by Kinomescan method relative to control
[21] = molecular target: Aurora kinase A (Homo sapiens) (UniProt O14965); experiment: Inhibition of wild-type human partial length AURA (E122 to K401 residues) expressed in mammalian expression system assessed as residual activity at 50 nM by Kinomescan method relative to control
[22] = molecular target: Serine/threonine-protein kinase 38-like (Homo sapiens) (UniProt Q9Y2H1); experiment: Inhibition of wild-type human partial length NDR2 (N34 to E447 residues) expressed in bacterial expression system assessed as residual activity at 50 nM by Kinomescan method relative to control
JAK2 = JAK2 (Homo sapiens, UniProt O60674); experiment: Inhibition of human JAK2 (A829 to G1132 residues) expressed in mammalian expression system assessed as residual activity at 50 nM by KINOMEscan assay relative to control; settings: read-out: Activity
[23] = molecular target: Dual specificity mitogen-activated protein kinase kinase 5 (Homo sapiens) (UniProt Q13163); experiment: Inhibition of human MAP2K5 (L98 to P448 residues) expressed in mammalian expression system assessed as residual activity at 50 nM by KINOMEscan assay relative to control
[24] = molecular target: LIM domain kinase 1 (Homo sapiens) (UniProt P53667); experiment: Inhibition of wild-type human full length LIMK1 (M1 to D647 residues) expressed in bacterial expression system assessed as residual activity at 50 nM by Kinomescan method relative to control

| SMILES | Activity [1] [%] | Activity [2] [%] | Activity [3] [%] | Activity [4] [%] | Activity [5] [%] | Activity [6] [%] | Activity [7] [%] | Activity [8] [%] | Activity [9] [%] | Activity [10] [%] | Activity [11] [%] | Activity [12] [%] | Activity [13] [%] | Activity [14] [%] | Activity [15] [%] | Activity [16] [%] | Activity [17] [%] | Activity [18] [%] | Activity [19] [%] | Activity [20] [%] | further results |
| --- | --- | --- | --- | --- | --- | --- | --- | --- | --- | --- | --- | --- | --- | --- | --- | --- | --- | --- | --- | --- | --- |
| COc1ccc(-c2cc3c(N[C@@H]4CC[C@](C)(N)C4(C)C)c(C(N)=O)cnn3c2)cn1 | 100 | 100 | 64 | 100 | 86 | 92 | 99 | 100 | 100 | 40 | 86 | 98 | 92 | 86 | 9 | 90 | 100 | 100 | 55 | 100 | Activity [21]: 100%; Activity [22]: 100%; activity at 0.05 µM (JAK2): 17%; Activity [23]: 34%; Activity [24]: 100% |
| CC1(C)[C@H](Nc2c(C(N)=O)cnn3cc(-c4ccccc4)cc23)CC[C@]1(C)N | 81 | 99 | 39 | 87 | 66 | 34 | 67 | 95 | 100 | 3.8 | 100 | 55 | 79 | 68 | 1.4 | 93 | 100 | 100 | 100 | 100 | Activity [21]: 88%; Activity [22]: 100%; activity at 0.05 µM (JAK2): 3.9%; Activity [23]: 5%; Activity [24]: 67% |
